Measurements from paper PMC6378327, “Modes of Accessing Bicarbonate for the Regulation of Membrane Guanylate Cyclase (ROS-GC) in Retinal Rods and Cones” (eNeuro, 2019).

Biological target: T1, ROS-GC1 (Bos taurus, UniProt P55203)
T1 construct: gene GUCY2D; core catalytic domain, G817-Y965 (numbering for mature protein), homodimer
Assay: activation of purified recombinant core catalytic domain by […] bicarbonate, cGMP radioimmunoassay
Assay type: biochemical
Conditions: 30000 µM

T1 sequence (P55203 873-1021): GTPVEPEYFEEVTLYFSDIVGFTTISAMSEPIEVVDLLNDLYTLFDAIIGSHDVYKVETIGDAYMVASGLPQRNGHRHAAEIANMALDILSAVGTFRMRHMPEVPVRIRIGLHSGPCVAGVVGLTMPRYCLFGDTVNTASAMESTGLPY

For O=C(O)O [bicarbonate], the “activation of purified recombinant core catalytic domain by 30 mM bicarbonate, c” value was 3.4 fold activity at 30 mM.
